Experimental findings from US20250313879A1, “Fluorescent Probe for Detecting Peptide Bond Hydrolase” (The University of Tokyo, priority 2022, published 2025) are described below.

In brackets after ≈: the same amount, converted by molar mass.

Series [1] deals with T1, aminopeptidase A (Homo sapiens, UniProt Q07075). Put plainly: Signal/noise ratio of enzymolysate in cuvette. The format is biochemical. The settings on record: 10 μM probe, 170 ng/mL aminopeptidase A, 25° C. 11 hours, @616 nm. The method, then: (§1) For two types of compounds Glu-sSiR (PB206/Example 12) and GP-sHMRG (PB109/Example 7), the signal/noise ratios of the enzymolysates before and after the enzyme reaction in the cuvette and the microdevice were each measured as follows. In the following experiments, the composition of the assay buffer is 100 mM HEPES-NaOH (pH 7.4), 1 mM MgCl2, 1 mM CaCl2), […].
Glu-sSiR was diluted with an assay buffer so as to be 10 μM, then added to a quartz cuvette, and the fluorescence spectrum before the enzyme reaction was measured with a fluorometer (excitation wavelength: 570 nm). Thereafter, aminopeptidase A was added so that the concentration in the solution was 170 ng/mL, the solution was incubated at 25° C. for 11 hours, and then the fluorescence spectrum was measured. The fluorescence spectra before and after the enzyme reaction were compared, the ratio of the values at a wavelength at which the fluorescence intensity was maximized was calculated as the signal/noise ratio of the enzymolysate, the ratio was 32 times (@616 nm) (see FIG. 7A).

Series [2] deals with aminopeptidase activity in human plasma sample. Put plainly: Enzyme activity assay in microdevice with human plasma, aminopeptidase probes. The note with it: 50 μM probe, 37° C. for 2 hours. The format is biochemical. On the procedure:
• 1. Ala-sHMRG as a fluorescent probe for detecting aminopeptidase activity was diluted with an assay buffer to 100 μM. The composition of the assay buffer is 100 mM HEPES-NaOH (pH 7.4), 1 mM MgCl2, 0.1% BSA, 1 mM DTT, 1 mM Triton X-100, • 2. Next, a human plasma sample was diluted by 500 times with the above assay buffer, and mixed in an equal amount with the diluted solution of the probe. At this time, the final concentrations of both are 50 μM for Ala-sHMRG and 1,000 fold dilution for the human plasma sample. • 3. The mixed solution of both was then added to a microdevice, followed by the addition of sealing oil to enclose the solution in each well. • 4. The microdevice in which the solution was enclosed was incubated at 37° C. for 4 hours, and then the fluorescence intensity of each well was measured with a fluorescence microscope.
• 1. Leu-sHMRG as a fluorescent probe for detecting aminopeptidase activity was diluted with an assay buffer to 100 μM. The composition of the assay buffer is 100 mM HEPES-NaOH (pH 7.4), 1 mM MgCl2, 1 mM DTT, 3 mM Triton X-100. • 2. Next, a human plasma sample was diluted by 2,500 times with the above assay buffer, and mixed in an equal amount with the diluted solution of the probe. At this time, the final concentrations of both are 50 μM for Leu-sHMRG and 5,000 fold dilution for the human plasma sample. • 3. The mixed solution of both was then added to a microdevice, followed by the addition of sealing oil to enclose the solution in each well. • 4. The microdevice in which the solution was enclosed was incubated at 37° C. for 4 hours, and then the fluorescence intensity of each well was measured with a fluorescence microscope.
(§2) • 5. Met-sHMRG as a fluorescent probe for detecting aminopeptidase activity was diluted with an assay buffer to 100 μM. The composition of the assay buffer is 100 mM HEPES-NaOH (pH 7.4), 1 mM MgCl2, 1 mM CaCl2, 1 mM DTT, 3 mM Triton X-100. • 6. Next, a human plasma sample was diluted by 500 times with the above assay buffer, and mixed in an equal amount with the diluted solution of the probe. At this time, the final concentrations of both are 50 μM for Met-sHMRG and 1,000 fold dilution for the human plasma sample. • 7. The mixed solution of both was then added to a microdevice, followed by the addition of sealing oil to enclose the solution in each well. • 8. The microdevice in which the solution was enclosed was incubated at 37° C. for 2 hours, and then the fluorescence intensity of each well was measured with a fluorescence microscope.
as §2, with “• 9. Tyr-sHMRG” for “• 5. Met-sHMRG”, “• 10.” for “• 6.”, “for Tyr-sHMRG” for “for Met-sHMRG”, “• 11.” for “• 7.”, “• 12.” for “• 8.”, “for 4” for “for 2”
• 1. Lys-sHMRG as a fluorescent probe for detecting aminopeptidase activity was diluted with an assay buffer to 100 μM. The composition of the assay buffer is 100 mM HEPES-NaOH (pH 7.4), 1 mM MgCl2, 1 mM CaCl2, 1 mM DTT, 3 mM Triton X-100. • 2. Next, a human plasma sample was diluted by 10,000 times with the above assay buffer, and mixed in an equal amount with the diluted solution of the probe. At this time, the final concentrations of both are 50 μM for Lys-sHMRG and 20,000 fold dilution for the human plasma sample. • 3. […]

Series [3] deals with T1, aminopeptidase A. Put plainly: Signal/noise ratio of enzymolysate in microdevice. The series is classed as biochemical. On the procedure: as §1
For Glu-sSiR, three kinds of solutions of (i) only an assay buffer, (ii) 30 μM of Glu-sSiR, and (iii) 30 μM of Glu-sSiR and 0.2 ng/mL of aminopeptidase A were prepared, and each solution was added to a microdevice, followed by the addition of sealing oil to enclose the solution in each well. The microdevice in which the solution was enclosed was incubated at 37° C. for 4 hours, and then the fluorescence intensity of each well was measured with a fluorescence microscope. When a difference between the average values of the fluorescence intensities of the respective wells in (ii) and (i) was defined as noise, a difference between the average value of the fluorescence intensities of the wells in which the enzyme was encapsulated in (iii) and the average value of the fluorescence intensities of the respective wells in (i) was defined as a signal, and a ratio of these values was calculated as the signal/noise ratio of the enzymolysate, the ratio was 8.3 times (see FIG. 8, panel A). […]

A short description of series [4]: Solubility in sealing oil (hexadecane). The series is classed as physicochemical. The note with it: oil or lipid, kinetic from dmso stock, room temperature (25° C.), three tests, average value±standard deviation. On the procedure: That is, 1 μL of a 10 mM DMSO solution of the test compound was added with respect to 100 μL of hexadecane as sealing oil, and the mixture was sonicated and suspended at room temperature (25° C.) for 1 minute. Thereafter, the solution was centrifuged for 30 seconds, 50 μL of the supernatant was collected and mixed with 100 μL of methanol, and a compound dissolved in hexadecane was extracted. Thereafter, the methanol solution from which the compound was extracted was analyzed by ultra performance liquid chromatography (UPLC) (eluent: A/B=95/5>5/95, A: 0.1% formic acid-containing 100% H2O, B: 0.1% formic acid-containing 100% CH3CN), and the concentration of the compound in the methanol solution was calculated from the peak area. In the calculation of the solution concentration using the UPLC peak area, solutions having a plurality of concentrations were prepared and measured for each compound, then a calibration curve was prepared (FIG. 5), and the calculation was performed according to the calibration curve.

The subject of another series is CD13. The series can be described thus: Diagnostic experiment of pancreatic cancer utilizing single-molecule enzyme activity of CD13. The settings on record: patients with pancreatic cancer compared with healthy subjects; 50 μM probe, plasma 20,000 fold dilution, 37° C. 2 hours. The format is biochemical, human. On the procedure:
In order to detect the single-molecule enzyme activity of CD13, an experiment to verify the availability of a probe to which […] is bonded as a reaction point (in General Formula (I) or (II), an alanine residue was introduced as —CO—R0 or —CO—R^10) to detect a pancreatic cancer biomarker was performed in the following procedures. • 1. Ala-sSiR as a CD13 detecting probe was diluted with an assay buffer to 100 μM. The composition of the assay buffer is 100 mM HEPES-NaOH (pH 7.4), 1 mM MgCl2, 1 mM CaCl2), 1 mM DTT, 3 mM Triton X-100. • 2. Next, human plasma samples collected from 30 patients with pancreatic cancer and 30 healthy subjects were each diluted by 10,000 times with the above assay buffer, and mixed in an equal amount with the diluted solution of Ala-sSiR. […] The microdevice in which the solution was enclosed was incubated at 37° C. for 2 hours, and then the fluorescence intensity of each well was measured with a fluorescence microscope.
Specifically, in this example, an ROC curve for determination based on the enzyme activity of CD13 determined based on the proportion of wells with a luminance of 2500 AU or more is created, and when a threshold is subtracted at the time when the number of wells of a signal is 3%, the sensitivity is 27% and the specificity is 100% (the right view of FIG. 3). […]

For orientation: solubility means how much of the substance goes into solution per volume. A lower solubility goes with little dissolved substance.

T1 sequence (Q07075 whole entry, species assumed): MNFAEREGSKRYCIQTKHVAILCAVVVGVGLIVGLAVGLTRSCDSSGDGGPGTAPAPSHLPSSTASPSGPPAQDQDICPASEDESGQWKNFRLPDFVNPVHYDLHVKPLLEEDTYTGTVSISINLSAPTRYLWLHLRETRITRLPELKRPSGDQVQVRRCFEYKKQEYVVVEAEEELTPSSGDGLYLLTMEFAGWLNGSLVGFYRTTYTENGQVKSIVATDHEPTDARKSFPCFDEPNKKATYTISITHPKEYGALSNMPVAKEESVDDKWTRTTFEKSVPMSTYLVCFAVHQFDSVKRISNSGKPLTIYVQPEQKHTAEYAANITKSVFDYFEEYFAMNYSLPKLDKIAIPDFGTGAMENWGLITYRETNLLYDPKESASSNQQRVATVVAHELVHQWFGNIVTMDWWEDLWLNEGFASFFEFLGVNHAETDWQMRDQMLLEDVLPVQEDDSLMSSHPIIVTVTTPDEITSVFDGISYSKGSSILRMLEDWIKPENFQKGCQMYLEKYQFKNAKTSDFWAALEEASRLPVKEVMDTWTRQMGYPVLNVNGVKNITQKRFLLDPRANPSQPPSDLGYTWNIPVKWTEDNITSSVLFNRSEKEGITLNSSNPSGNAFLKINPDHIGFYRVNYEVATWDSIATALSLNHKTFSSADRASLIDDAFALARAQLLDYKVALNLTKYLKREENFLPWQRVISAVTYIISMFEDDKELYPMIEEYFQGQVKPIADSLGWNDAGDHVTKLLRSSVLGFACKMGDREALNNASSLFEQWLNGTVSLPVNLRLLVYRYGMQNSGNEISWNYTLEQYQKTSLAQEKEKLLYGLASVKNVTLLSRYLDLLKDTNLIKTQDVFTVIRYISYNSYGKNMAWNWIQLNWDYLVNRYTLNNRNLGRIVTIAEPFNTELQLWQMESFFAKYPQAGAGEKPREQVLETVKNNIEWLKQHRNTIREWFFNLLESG

In the case of `Cc1ccc(S(=O)(=O)O)cc1C1=C2C=CC(=N)C=C2[Si](C)(C)c2cc(NC(=O)[C@@H](N)CCC(=O)O)ccc21` [Glu-sSiR], the “signal/noise ratio of the enzymolysate” value was 32 times at aminopeptidase A [1] and 8.3 times on aminopeptidase A [3] (microdevice, 30 μM probe, 0.2 ng/mL aminopeptidase A, 37° C. 4 hours). Besides, in series [2] (human plasma 1,000 fold dilution), the “fluorescence intensity of wells in which the reacting enzyme was enclosed” value is given as “increase in fluorescence intensity was observed”. Also, the “ratio of the signal/noise ratio in the microdevice to the signal/noise ratio in the cuvette” value on aminopeptidase A [3] (aminopeptidase A) is 0.26. Besides, the concentration in solution in series [4] (solubility at 1 min) was 0.3 ± 0.096 µM (≈ 0.166 µg/mL).

On to `Cc1ccc(S(=O)(=O)O)cc1C1=C2C=CC(=N)C=C2[Si](C)(C)c2cc(NC(=O)[C@H](C)N)ccc21` [Ala-sSiR], for which the “fluorescence intensity of wells in which the reacting enzyme was enclosed” value in series [2] (human plasma 20,000 fold dilution) is given as “increase in fluorescence intensity was observed”. Besides, in the series with CD13, the “number of wells in which the luminance is 2,500 AU or more (CD13 considered enclosed)” value is on record as “significant increase”.
